Measured values published in patent publication US20110165113A1, “POLYMER CONJUGATES OF V681-LIKE PEPTIDES” (Nektar Therapeutics, priority 2008, published 2011).
Square brackets hold non-standard residues; d marks the D form. Peptide text beside a SMILES is read from it.

Experiment: Pharmacokinetics after a single IV dose in rats
Conditions: male, Sprague-Dawley, rat, in vivo, equivalent protein mass of 1.0 mg/kg
From the text: The weight range of the animals was 311-346 grams. All animals were food fasted overnight. […] The predose sample was collected from the JVC.
Following the last collection point, the animals were euthanized.

Question: Which results are given for `CC[C@H](C)[C@H](NC(=O)[C@H](C)NC(=O)[C@H](CCCCN)NC(=O)[C@H](CC(C)C)NC(=O)[C@H](C)NC(=O)[C@@H](NC(=O)[C@H](Cc1c[nH]cn1)NC(=O)[C@H](CC(C)C)NC(=O)[C@@H](NC(=O)[C@@H](NC(=O)[C@H](CCCCN)NC(=O)[C@@H](C)NC(=O)[C@H](C)NC(=O)[C@H](CO)NC(=O)[C@H](CCCCN)NC(=O)[C@H](Cc1ccccc1)NC(=O)[C@@H](NC(=O)[C@H](CCCCN)NC(=O)[C@H](CC(C)C)NC(=O)[C@H](Cc1ccccc1)NC(=O)[C@H](CO)NC(=O)[C@H](CCCCN)NC(=O)[C@H](Cc1c[nH]c2ccccc12)NC(=O)[C@H](CCCCN)NC(C)=O)[C@@H](C)O)[C@@H](C)O)C(C)C)[C@@H](C)O)C(=O)N[C@@H](CO)C(=O)N[C@@H](CO)C(N)=O` [V681 (V13AD)] (Ac-KWKSFLKTFKSA[dA]KTVLHTALKAISS-NH2)?
Answer: AUC(0-inf): 7210 ± 1430 ng·h/mL; Cmax: 16500 ± 9670 ng/mL; MRT: 19.8 ± 4.8 min; clearance: 2.37 mL/min/kg; half-life: 36.6 ± 23.4 min; Vd (read-out: Vss): 0.0477 ± 0.018 L/kg
